Reference: patent publication US4056626A, “Pharmaceutical composition containing benzofuran derivative” (Kakenyaku Kako Co., Ltd., priority 1971, dated 1977)
Where “and” joins values, the source holds several entries; their conditions need not be identical. Equal entries are not always repeated. Entries after “also recorded” stand apart in the source; their conditions may differ.

Legend:
cardiac arrhythmias = test: clinical study of cardiac arrhythmias; assay type: in vivo, patients; design: key to Treatment evaluation: Extremely effective (++): An outstanding improvement of subjective symptom and an outstanding improvement in electrocardiogram were observed.; Effective (+): Therapeutic effects were clearly observed.; Slightly effective (±): Subjective symptom was fairly decreased and some improvement in electrocardiogram was observed.; Non-effective (-): Any therapeutic effect was not observed; settings: oral 30 to 60 mg./day, 10 days to 12 weeks
Experimental: The active ingredient, 2-acetyl-7-(2-hydroxy-3-isopropylaminopropoxy)benzofuran hydrochloride, contained in the capsules obtained in Example 47 was administrered orally in a dose of 30 to 60 mg./day for a period of 10 days to 12 weeks. The treatment evaluation was determined according to the following standard: […]

angina pectoris = test: clinical study of angina pectoris; assay type: in vivo, patients; design: key: Extremely effective (++): An outstanding improvement of subjective symptom and an outstanding improvement in electrocardiogram were observed.; Effective (+): Therapeutic effects were clearly observed.; Slightly effective (±): Subjective symptom was fairly decreased and some improvement in electrocardiogram was observed.; Non-effective (-): Any therapeutic effect was not observed; settings: oral 15 to 60 mg./day, 1 to 10 weeks, per patient, hydrochloride
Experimental: A clinical study relating to angina pectoris was made covering the patients shown in Table V. The active ingredient, 2-acetyl-7-(2-hydroxy-3-isopropylaminopropoxy)benzofuran hydrochloride, contained in the capsules obtained in Example 47 was administered orally in a dose of 15 to 60 mg./day for a period of 1 to 10 weeks.

hypertension = test: clinical study of hypertension; assay type: in vivo; settings: four hypertensive patients; oral 60 mg./day, 30 days
Text: To a patient of 68 age who was diagnosed as an essential hypertension was orally administered the active ingredient, 2-acetyl-7-(2-hydroxy-3-isopropyl aminopropoxy)benzofuran hydrochloride, […] As a result, the maximum blood pressure of 210 mmHg and the minimum blood pressure of 88 mmHg before treatment were decreased to 176 mmHg and 76 mmHg after treatment, respectively.

[1] = test system: tachycardia in hyperthyroidism; test: clinical study: tachycardia in hyperthyroidism, single administration; assay type: in vivo, patients; settings: 14 days
Experimental: A. A therapeutic effect of the present pharmaceutical composition to tachycardia in hyperthyroidism in case of its signle administration was investigated.
To 12 patients of hyperthyroidism shown in Table VI was orally administered the active ingredient, 2-acetyl-7-(2-hydroxy-3-isopropylaminopropoxy)benzofuran hydrochloride, contained in the capsules obtained in Example 47 in a dose of 30 mg./day (3 times per day) for 14 days. The treatment evaluation was determined according to the following standard:
For reference, a therapeutic effect of an antihyperthyroidism medicament to tachycardia in hyperthyroidism in case of its single administration was investigated.
To 12 patients of hyperthyroidism shown in Table VII was orally administered Mercazol which has been widely employed as an antihyperthyroidism medicament in a dose of 30 mg./day for 14 days.

[2] = test system: tachycardia in hyperthyroidism; test: clinical study: tachycardia in hyperthyroidism, combination with antihyperthyroidism medicament; assay type: in vivo, patients; settings: in combination with Mercazol, 14 days, per patient
Experimental: (B) A therapeutic effect of the present pharmaceutical composition in combination with an antihyperthyroidism medicament to tachycardia in hyperthyroidism was investigated.
To six patients of hyperthyroidism shown in Table VIII were orally administered the active ingredient, 2-acetyl-7-(2-hydroxy-3-isopropylaminopropoxy)benzofuran hydrochloride, contained in the capsules obtained in Example 47 and Mercazol in each dose of 30 mg./day (three times per day) for 14 days.

[3] = one value per patient, hydrochloride

With `CC(=O)c1cc2cccc(OCC(O)CNC(C)C)c2o1.Cl` (stereo not shown) [2-acetyl-7-(2-hydroxy-3-isopropylaminopropoxy)benzofuran hydrochloride] the Treatment evaluation (cardiac arrhythmias; cardiac arrhythmias, per patient, hydrochloride) was “+ and ± and - and ++”, the “Blood pressure after treatment (first figure, systolic)” value (cardiac arrhythmias; [3]) was 96 mmHg and 114 mmHg and 104 mmHg and 130 mmHg and 145 mmHg and 154 mmHg and 165 mmHg and 125 mmHg and 108 mmHg and 135 mmHg and 118 mmHg and the “Blood pressure after treatment (second figure, diastolic)” value (cardiac arrhythmias; [3]) was 66 mmHg and 70 mmHg and 62 mmHg and 78 mmHg and 110 mmHg and 75 mmHg and 80 mmHg and 68 mmHg. The “Heart rate/min. after treatment” value (cardiac arrhythmias; [3]) was 60 min⁻¹ and 82 min⁻¹ and 68 min⁻¹ and 72 min⁻¹ and 76 min⁻¹ and 64 min⁻¹ and 100 min⁻¹, the Side effect (cardiac arrhythmias; per patient) was “No” and the Treatment evaluation (angina pectoris) was “± and + and - and ++”. For the same molecule, the good therapeutic results (hypertension) was “three patients among four, good therapeutic results were obtained”, the “Pulse rate after treatment, average” value ([1]; 12 patients, oral 30 mg./day, average before treatment 114.5, standard deviation 11.6, in beats/min (unit assumed)) was 90.4 and the Pulse rate difference, average ([1]; 12 patients, oral 30 mg./day, standard deviation printed 1.1) was 23.8 beats/min. For the same molecule, the Pulse rate difference ([1]; before minus after, oral 30 mg./day (3 times per day), per patient, hydrochloride, in beats/min (unit assumed)) was 22 and 32 and 14 and 30 and 51 and 28 and 24 and 20 and 8 and 16, the Side effect ([1]; hyperthyroidism, oral 30 mg./day (3 times per day), per patient) was “No” and the Treatment evaluation ([1]; hyperthyroidism, oral 30 mg./day (3 times per day), per patient, hydrochloride) was “++ (Extremely effective (++): The pulse rate before treatment was decreased in a difference of not less than 20 after treatment.); also recorded: + (Effective (+): The pulse rate before treatment was decreased in a difference of 10 to 19 after treatment.)”. The “Pulse rate after treatment” value ([1]; hyperthyroidism, oral 30 mg./day (3 times per day), per patient, hydrochloride, in beats/min (unit assumed)) was 80 and 108 and 88 and 100 and 77 and 76 and 84, the “Pulse rate after treatment” value ([2]; each oral 30 mg./day (three times per day), hydrochloride, in beats/min (unit assumed)) was 88 and 76 and 78 and 68 and 82 and the Side effect ([2]; each oral 30 mg./day) was “No”. The Treatment evaluation ([2]; each oral 30 mg./day, hydrochloride) was “+ (Effective (+): The pulse rate before treatment was decreased in a difference of 10 to 19 after treatment.); also recorded: ++ (Extremely effective (++): The pulse rate before treatment was decreased in a difference of not less than 20 after treatment.)”.
